{
  "source": "patent US11872266B2",
  "about": "“Rapid-acting insulin compositions” (Eli Lilly and Company, priority 2014, dated 2024)",
  "origin": "cited, not measured here",
  "settings": "on a molar basis",
  "data": [
    {"substance": "28^B-L-Lysine-29^B-L-proline human insulin [Insulin lispro]", "values": [
      {"measurement": "Potency relative to human insulin", "value": "equipotent to human insulin"}
    ]}
  ]
}
